# Assay results from patent publication US20220265817A1, “THERAPEUTIC COMPOSITIONS AND METHODS FOR TREATING HEPATITIS B” (priority 2017, published 2022).
# How the values were obtained:
# [1] = tested on: hepatitis B virus (HBV); assay: Mouse model of HBV (AAV1.2 tail vein injection), serum HBsAg enzyme immunoassay; assay type: in vivo, C57/B16 mice; details: Compound 20 3.0 mg/kg oral twice daily Days 0-28, HBV siRNA (LNP) 0.3 mg/kg IV Day 0, n=5 (n=4 vehicle + siRNA)
# Procedure: (§1) This viral vector contains a 1.2-fold overlength copy of the HBV genome and expresses HBV surface antigen (HBsAg) amongst other HBV products. Serum HBsAg expression in mice was monitored using an enzyme immunoassay. Animals were sorted (randomized) into groups based on serum HBsAg levels such that a) all animals were confirmed to express HBsAg and b) HBsAg group means were similar to each other prior to initiation of treatments.
# Animals were treated with Compound 20 as follows: Starting on Day 0, a 3.0 mg/kg dosage of Compound 20 was administered orally to animals on a twice-daily frequency for a total of 56 doses between Days 0 and 28. Compound 20 was dissolved in a co-solvent formation for administration. Negative control animals were administered either the co-solvent formulation alone, or were not treated with any test article. Animals were treated with lipid nanoparticle (LNP)-encapsulated HBV-targeting siRNAs as follows: On Day 0, an amount of test article equivalent to 0.3 mg/kg siRNA was administered intravenously. The HBsAg expression levels for each treatment were compared against the Day 0 (pre-dose) values for that group.
# The effect of these treatments was determined by collecting blood on Days 0 (pre-treatment), 7, 14, and 28 and analyzing it for serum HBsAg content.
# [2] = tested on: HBsAg secretion in HepG2.2.15 cells; assay: HepG2.2.15 cell culture system, HBsAg quantitation by CLIA, MacSynergy II; assay type: cell-based, human hepatoblastoma HepG2 cells; details: for Additive % Inhibition versus negative control: Trial 3, n = 4, SIRNA-NP μM: 0.0025, 0.00079, 0.00025, 7.9E−05, 2.5E−05, 0
# Procedure: In vitro combination studies were conducted using the method of Prichard and Shipman (Prichard M N, and Shipman C Jr., Antiviral Research, 1990, 14 (4-5), 181-205; and Prichard M N, et. al., MacSynergy II). The HepG2.2.15 cell culture system is a cell line derived from human hepatoblastoma HepG2 cells that have been stably transfected with the adw2-subtype HBV genome as previously explained in Sells et al. (Proc. Natl. Acad. Sci. U. S. A, 1987. Vol 84:1005-1009). HepG2.2.15 cells secrete Dane-like viral particles, produce HBV DNA, and also produce the viral proteins, hepatitis B e antigen (HBeAg) and hepatitis B surface antigen (HBsAg).
# To test the compound combinations, HepG2.2.15 (30,000 cells/well) were plated in 96 well tissue-culture treated microtiter plates in RPMI+L-Glutamine medium supplemented with 1% penicillin-streptomycin, 20 μg/mL geneticin (G418), 10% fetal bovine serum, and incubated in a humidified incubator at 37° C. and 5% CO2 overnight. […] […] The microtiter cell plates were incubated for a duration of 6 days in a humidified incubator at 37° C. and 5% CO2.
# (§2) Untreated positive control samples (0.5% DMSO in media) were included on each plate in multiple wells. Following a 6 day-incubation, media was removed from treated cells for use in an HBsAg chemiluminescence immunoassay (CLIA) (Autobio Diagnostics, Cat No. CL0310-2). An HBsAg standard curve was generated to verify that the levels of HBsAg quantification were within the detection limits of the assay. The remaining inhibitor-treated cells were assessed for cytotoxicity by determination of the intracellular adenosine triphosphate (ATP) using a Cell-Titer Glo reagent (Promega) as per manufacturers instructions and by microscopic analysis of the cells throughout the duration of inhibitor treatment. Cell viability was calculated as a percentage of the untreated positive control wells.
# The plates were read using an EnVision multimode plate reader (PerkinElmer Model 2104). […] The RLU data from the single compound treated cells were analyzed using XL-Fit module in Microsoft Excel to determine EC50 values using a 4-parameter curve fitting algorithm.
# [3] = tested on: HepG2.2.15 cells; assay: HepG2.2.15 cytotoxicity (intracellular ATP, Cell-Titer Glo; microscopy); assay type: cell-based, human hepatoblastoma HepG2 cells; details: Trial 3, SIRNA-NP μM: 0.0025, 0.00079, 0.00025, 7.9E−05, 2.5E−05, 0
# Procedure: as §2
# [4] = tested on: hepatitis B virus (HBV); assay: Mouse model of HBV (pAAV/HBV1.2 hydrodynamic injection), serum HBsAg enzyme immunoassay; assay type: in vivo, C3H/HeN mice; details: HBV siRNA 1 mg/kg IV Days 0, 7, 14, poly(I:C) 20 μg HDI Day 0, mean ± SEM
# Excerpt: A mouse model of hepatitis B virus (HBV) was used to assess the anti-HBV effects of an immune stimulant and HBV-targeting siRNAs, both as independent treatments and in combination with each other.
# as §1, with “This plasmid carries” for “This viral vector contains”, “of a” for “of the”
# Animals were treated with immune stimulant as follows: On Day 0, 20 micrograms of high molecular weight polyinosinic:polycytidylic acid (poly(I:C)) was administered via HDI. Animals were treated with lipid nanoparticle (LNP)-encapsulated HBV-targeting siRNAs as follows: On each of Days 0, 7 & 14, an amount of test article equivalent to 1 mg/kg siRNA was administered intravenously. A negative control group was included as the HBsAg expression level is not completely stable in this mouse model of HBV; the absolute concentration of serum HBsAg generally declines over time in individual animals.
# The effect of the treatments was determined by collecting a small amount of blood on Days 0 (pre-treatment), 3, 7, 14 & 21 and analyzing it for serum HBsAg content. Samples were diluted as appropriate to generate values within the assay range of quantitation where possible. Individual values falling below the lower limit of quantitation (LLOQ) were set as one-half the LLOQ.
compound,measurement,setting,value
COCCCOc1cc2c(cc1OC)-c1cc(=O)c(C(=O)O)cn1[C@H](C(C)C)C2 [Compound 20],serum HBsAg as percentage of pre-treatment baseline at Day 0 (mean ± SEM),[1]; D 7,7 ± 1%
same,serum HBsAg as percentage of pre-treatment baseline at Day 0 (mean ± SEM),[1]; D 14,8 ± 2%
same,serum HBsAg as percentage of pre-treatment baseline at Day 0 (mean ± SEM),[1]; D 21,7 ± 2%
same,serum HBsAg as percentage of pre-treatment baseline at Day 0 (mean ± SEM),[1]; D 28,8 ± 2%
COCCCOc1cc2c(cc1OC)-c1cc(=O)c(C(=O)O)cn1[C@H](C(C)C)C2 [Compound 5],EC50,"[2]; HBsAg by CLIA, trial by row: r8 1, r9 2, r10 3, read-out: Compound 5 EC50",2 nM
same,Additive % Inhibition versus negative control,[2]; Compound 5 0.0001 μM,69.99%
same,Additive % Inhibition versus negative control,[2]; Compound 5 0.000316 μM,82.39%
same,Additive % Inhibition versus negative control,[2]; Compound 5 0.001 μM,89.01%
same,Additive % Inhibition versus negative control,[2]; Compound 5 0.00316 μM,90.26%
same,Additive % Inhibition versus negative control,[2]; Compound 5 0.1 μM,86.26%
same,Additive % Inhibition versus negative control,[2]; Compound 5 1.0E−05 μM,46.36%
same,Additive % Inhibition versus negative control,[2]; Compound 5 1.00E−06 μM,22.68%
same,Additive % Inhibition versus negative control,[2]; Compound 5 3.16E−06 μM,34.18%
same,Additive % Inhibition versus negative control,[2]; Compound 5 3.17E−05 μM,56.34%
same,Avg % Cell Viability vs control,[3]; Compound 5 0.0001 μM,128%
same,Avg % Cell Viability vs control,[3]; Compound 5 0.000316 μM,131%
same,Avg % Cell Viability vs control,[3]; Compound 5 0.001 μM,141%
same,Avg % Cell Viability vs control,[3]; Compound 5 0.00316 μM,127%
same,Avg % Cell Viability vs control,[3]; Compound 5 0.1 μM,99%
same,Avg % Cell Viability vs control,[3]; Compound 5 1.0E−05 μM,140%
same,Avg % Cell Viability vs control,[3]; Compound 5 1.00E−06 μM,131%
same,Avg % Cell Viability vs control,[3]; Compound 5 3.16E−06 μM,127%
same,Avg % Cell Viability vs control,[3]; Compound 5 3.17E−05 μM,131%
polyinosinic:polycytidylic acid [Poly(I:C)],"Serum HBsAg, % of individual pre-treatment baseline (Day 0)","[4]; Day 3, n=4 or 5",6.1 ± 1.1%
same,"Serum HBsAg, % of individual pre-treatment baseline (Day 0)",[4]; Day 7,3.5 ± 1.1%
same,"Serum HBsAg, % of individual pre-treatment baseline (Day 0)",[4]; Day 14,3.9 ± 1.4%
same,"Serum HBsAg, % of individual pre-treatment baseline (Day 0)",[4]; Day 21,4.7 ± 2.3%
